Source: patent US20220081387A1, “METHODS FOR PREPARING AMMONIUM TETRATHIOMOLYBDATE” (Alexion Pharmaceuticals, Inc., priority 2019, published 2022)

Experiment: Long-term stability study of ATTM samples, determined by HPLC
Assay type: physicochemical
Protocol: ATTM Samples 1 and 2 were prepared essentially according to procedure in Example 1 starting with 12 kg of ammonium heptamolybdate. The isolated product was packed and stored immediately. Specifically, the samples were packaged corresponding to the packaging of the bulk material under argon in transparent anti-static polyethylene plastic bags, 90 10 10, 110 mm×170 mm, and the bags containing the samples were sealed with a plastic tie, and then subsequently packed in welded aluminium bags along with a drying agent in-between the two bags. Additional samples were packaged with ambient atmosphere in transparent anti-static polyethylene plastic bags, 90 10 10, 110 mm×170 mm. The bags containing the samples were sealed with a plastic tie, and then subsequently packed in welded aluminium bags along with a drying agent in-between the two bags.

[NH4+].[NH4+].[SH-].[SH-].[S]=[Mo]=[S] [Sample 1, ammonium tetrathiomolybdate]
(NH4)6Mo7O24 (5 °C, Air, 3 mo): <0.05 w/w % | ATTM (5 °C, Air, 3 mo): 99.2 w/w % | Dimer S6 (5 °C, Air, 3 mo): <0.05 w/w % | TM1 (5 °C, Air, 3 mo): <0.05 w/w % | TM2 (5 °C, Air, 3 mo): <0.05 w/w % | TM3 (5 °C, Air, 3 mo): 0.93 w/w % | (NH4)6Mo7O24 (5 °C, Air, 6 mo): <0.05 w/w % | ATTM (5 °C, Air, 6 mo): 98.6 w/w % | Dimer S6 (5 °C, Air, 6 mo): <0.05 w/w % | Insoluble materials (5 °C, Air, 6 mo): <0.1 w/w % | TM1 (5 °C, Air, 6 mo): <0.05 w/w % | TM2 (5 °C, Air, 6 mo): <0.05 w/w % | TM3 (5 °C, Air, 6 mo): 0.94 w/w % | (NH4)6Mo7O24 (5 °C, Air, Initial): <0.05 w/w % | ATTM (5 °C, Air, Initial): 98.8 w/w % | Dimer S6 (5 °C, Air, Initial): <0.05 w/w % | Insoluble materials (5 °C, Air, Initial): <0.1 w/w % | TM1 (5 °C, Air, Initial): <0.05 w/w % | TM2 (5 °C, Air, Initial): <0.05 w/w % | TM3 (5 °C, Air, Initial): 0.77 w/w % | (NH4)6Mo7O24 (5 °C, Ar, 3 mo): <0.05 w/w % | ATTM (5 °C, Ar, 3 mo): 99.1 w/w % | Dimer S6 (5 °C, Ar, 3 mo): <0.05 w/w % | TM1 (5 °C, Ar, 3 mo): <0.05 w/w % | TM2 (5 °C, Ar, 3 mo): <0.05 w/w % | TM3 (5 °C, Ar, 3 mo): 0.96 w/w % | (NH4)6Mo7O24 (5 °C, Ar, 6 mo): <0.05 w/w % | ATTM (5 °C, Ar, 6 mo): 99.0 w/w % | Dimer S6 (5 °C, Ar, 6 mo): <0.05 w/w % | Insoluble materials (5 °C, Ar, 6 mo): <0.1 w/w % | TM1 (5 °C, Ar, 6 mo): <0.05 w/w % | TM2 (5 °C, Ar, 6 mo): <0.05 w/w % | TM3 (5 °C, Ar, 6 mo): 0.97 w/w % | (NH4)6Mo7O24 (5 °C, Ar, Initial): <0.05 w/w % | ATTM (5 °C, Ar, Initial): 98.8 w/w % | Dimer S6 (5 °C, Ar, Initial): <0.05 w/w % | Insoluble materials (5 °C, Ar, Initial): <0.1 w/w % | TM1 (5 °C, Ar, Initial): <0.05 w/w % | TM2 (5 °C, Ar, Initial): <0.05 w/w % | TM3 (5 °C, Ar, Initial): 0.77 w/w % | (NH4)6Mo7O24 (−20 °C, Air, 3 mo): <0.05 w/w % | ATTM (−20 °C, Air, 3 mo): 99.3 w/w % | Dimer S6 (−20 °C, Air, 3 mo): <0.05 w/w % | TM1 (−20 °C, Air, 3 mo): <0.05 w/w % | TM2 (−20 °C, Air, 3 mo): <0.05 w/w % | TM3 (−20 °C, Air, 3 mo): 0.93 w/w % | (NH4)6Mo7O24 (−20 °C, Air, 6 mo): <0.05 w/w % | ATTM (−20 °C, Air, 6 mo): 99.0 w/w % | Dimer S6 (−20 °C, Air, 6 mo): <0.05 w/w % | Insoluble materials (−20 °C, Air, 6 mo): <0.1 w/w % | TM1 (−20 °C, Air, 6 mo): <0.05 w/w % | TM2 (−20 °C, Air, 6 mo): <0.05 w/w % | TM3 (−20 °C, Air, 6 mo): 0.82 w/w % | (NH4)6Mo7O24 (−20 °C, Air, Initial): <0.05 w/w % | ATTM (−20 °C, Air, Initial): 98.8 w/w % | Dimer S6 (−20 °C, Air, Initial): <0.05 w/w % | Insoluble materials (−20 °C, Air, Initial): <0.1 w/w % | TM1 (−20 °C, Air, Initial): <0.05 w/w % | TM2 (−20 °C, Air, Initial): <0.05 w/w % | TM3 (−20 °C, Air, Initial): 0.77 w/w % | (NH4)6Mo7O24 (−20 °C, Ar, 3 mo): <0.05 w/w % | ATTM (−20 °C, Ar, 3 mo): 99.5 w/w % | Dimer S6 (−20 °C, Ar, 3 mo): <0.05 w/w % | TM1 (−20 °C, Ar, 3 mo): <0.05 w/w % | TM2 (−20 °C, Ar, 3 mo): <0.05 w/w % | TM3 (−20 °C, Ar, 3 mo): 1.05 w/w % | (NH4)6Mo7O24 (−20 °C, Ar, 6 mo): <0.05 w/w % | ATTM (−20 °C, Ar, 6 mo): 99.1 w/w % | Dimer S6 (−20 °C, Ar, 6 mo): <0.05 w/w % | Insoluble materials (−20 °C, Ar, 6 mo): <0.1 w/w % | TM1 (−20 °C, Ar, 6 mo): <0.05 w/w % | TM2 (−20 °C, Ar, 6 mo): <0.05 w/w % | TM3 (−20 °C, Ar, 6 mo): 0.88 w/w % | (NH4)6Mo7O24 (−20 °C, Ar, Initial): <0.05 w/w % | ATTM (−20 °C, Ar, Initial): 98.8 w/w % | Dimer S6 (−20 °C, Ar, Initial): <0.05 w/w % | Insoluble materials (−20 °C, Ar, Initial): <0.1 w/w % | TM1 (−20 °C, Ar, Initial): <0.05 w/w % | TM2 (−20 °C, Ar, Initial): <0.05 w/w % | TM3 (−20 °C, Ar, Initial): 0.77 w/w %

[NH4+].[NH4+].[SH-].[SH-].[S]=[Mo]=[S] [Sample 2, ammonium tetrathiomolybdate]
(NH4)6Mo7O24 (5 °C, Air, 3 mo): <0.05 w/w % | ATTM (5 °C, Air, 3 mo): 98.6 w/w % | Dimer S6 (5 °C, Air, 3 mo): <0.05 w/w % | TM1 (5 °C, Air, 3 mo): <0.05 w/w % | TM2 (5 °C, Air, 3 mo): <0.05 w/w % | TM3 (5 °C, Air, 3 mo): 1.13 w/w % | (NH4)6Mo7O24 (5 °C, Air, 6 mo): <0.05 w/w % | ATTM (5 °C, Air, 6 mo): 97.9 w/w % | Dimer S6 (5 °C, Air, 6 mo): <0.05 w/w % | Insoluble materials (5 °C, Air, 6 mo): <0.1 w/w % | TM1 (5 °C, Air, 6 mo): <0.05 w/w % | TM2 (5 °C, Air, 6 mo): <0.05 w/w % | TM3 (5 °C, Air, 6 mo): 0.95 w/w % | (NH4)6Mo7O24 (5 °C, Air, Initial): <0.05 w/w % | ATTM (5 °C, Air, Initial): 98.8 w/w % | Dimer S6 (5 °C, Air, Initial): <0.05 w/w % | Insoluble materials (5 °C, Air, Initial): <0.1 w/w % | TM1 (5 °C, Air, Initial): <0.05 w/w % | TM2 (5 °C, Air, Initial): <0.05 w/w % | TM3 (5 °C, Air, Initial): 1.01 w/w % | (NH4)6Mo7O24 (5 °C, Ar, 3 mo): <0.05 w/w % | ATTM (5 °C, Ar, 3 mo): 99.0 w/w % | Dimer S6 (5 °C, Ar, 3 mo): <0.05 w/w % | TM1 (5 °C, Ar, 3 mo): <0.05 w/w % | TM2 (5 °C, Ar, 3 mo): <0.05 w/w % | TM3 (5 °C, Ar, 3 mo): 0.99 w/w % | (NH4)6Mo7O24 (5 °C, Ar, 6 mo): <0.05 w/w % | ATTM (5 °C, Ar, 6 mo): 98.2 w/w % | Dimer S6 (5 °C, Ar, 6 mo): <0.05 w/w % | Insoluble materials (5 °C, Ar, 6 mo): <0.1 w/w % | TM1 (5 °C, Ar, 6 mo): <0.05 w/w % | TM2 (5 °C, Ar, 6 mo): <0.05 w/w % | TM3 (5 °C, Ar, 6 mo): 1.03 w/w % | (NH4)6Mo7O24 (5 °C, Ar, Initial): <0.05 w/w % | ATTM (5 °C, Ar, Initial): 98.8 w/w % | Dimer S6 (5 °C, Ar, Initial): <0.05 w/w % | Insoluble materials (5 °C, Ar, Initial): <0.1 w/w % | TM1 (5 °C, Ar, Initial): <0.05 w/w % | TM2 (5 °C, Ar, Initial): <0.05 w/w % | TM3 (5 °C, Ar, Initial): 1.01 w/w % | (NH4)6Mo7O24 (−20 °C, Air, 3 mo): <0.05 w/w % | ATTM (−20 °C, Air, 3 mo): 99.4 w/w % | Dimer S6 (−20 °C, Air, 3 mo): <0.05 w/w % | TM1 (−20 °C, Air, 3 mo): <0.05 w/w % | TM2 (−20 °C, Air, 3 mo): <0.05 w/w % | TM3 (−20 °C, Air, 3 mo): 0.92 w/w % | (NH4)6Mo7O24 (−20 °C, Air, 6 mo): <0.05 w/w % | ATTM (−20 °C, Air, 6 mo): 98.2 w/w % | Dimer S6 (−20 °C, Air, 6 mo): <0.05 w/w % | Insoluble materials (−20 °C, Air, 6 mo): <0.1 w/w % | TM1 (−20 °C, Air, 6 mo): <0.05 w/w % | TM2 (−20 °C, Air, 6 mo): <0.05 w/w % | TM3 (−20 °C, Air, 6 mo): 1.13 w/w % | (NH4)6Mo7O24 (−20 °C, Air, Initial): <0.05 w/w % | ATTM (−20 °C, Air, Initial): 98.8 w/w % | Dimer S6 (−20 °C, Air, Initial): <0.05 w/w % | Insoluble materials (−20 °C, Air, Initial): <0.1 w/w % | TM1 (−20 °C, Air, Initial): <0.05 w/w % | TM2 (−20 °C, Air, Initial): <0.05 w/w % | TM3 (−20 °C, Air, Initial): 1.01 w/w % | (NH4)6Mo7O24 (−20 °C, Ar, 3 mo): <0.05 w/w % | ATTM (−20 °C, Ar, 3 mo): 99.1 w/w % | Dimer S6 (−20 °C, Ar, 3 mo): <0.05 w/w % | TM1 (−20 °C, Ar, 3 mo): <0.05 w/w % | TM2 (−20 °C, Ar, 3 mo): <0.05 w/w % | TM3 (−20 °C, Ar, 3 mo): 1.07 w/w % | (NH4)6Mo7O24 (−20 °C, Ar, 6 mo): <0.05 w/w % | ATTM (−20 °C, Ar, 6 mo): 98.2 w/w % | Dimer S6 (−20 °C, Ar, 6 mo): <0.05 w/w % | Insoluble materials (−20 °C, Ar, 6 mo): <0.1 w/w % | TM1 (−20 °C, Ar, 6 mo): <0.05 w/w % | TM2 (−20 °C, Ar, 6 mo): <0.05 w/w % | TM3 (−20 °C, Ar, 6 mo): 0.98 w/w % | (NH4)6Mo7O24 (−20 °C, Ar, Initial): <0.05 w/w % | ATTM (−20 °C, Ar, Initial): 98.8 w/w % | Dimer S6 (−20 °C, Ar, Initial): <0.05 w/w % | Insoluble materials (−20 °C, Ar, Initial): <0.1 w/w % | TM1 (−20 °C, Ar, Initial): <0.05 w/w % | TM2 (−20 °C, Ar, Initial): <0.05 w/w % | TM3 (−20 °C, Ar, Initial): 1.01 w/w %
